According to ChEMBL document CHEMBL1128661, “Vasorelaxant activity of 2-fluoroalkyl-6-nitro-2H-1-benzopyran-4-carbothioamide and -carboxamide K+ channel openers” (Bioorg Med Chem Lett, 1995):

Legend:
[1] = species: Rattus norvegicus; assay: Intrinsic vasorelaxant activity tested in rat aorta; format: functional
[2] = species: Rattus norvegicus; assay: Negative logarithm of the molar concentration required to relax rat aorta precontracted with 30 mM KCI by 50% of IA; format: functional, organism-based

Structure (SMILES) | Intrinsic activity [1] [%] | EC50 [2] [nM]
CC1(C)C=C(C(=O)NCCC#N)c2cc([N+](=O)[O-])ccc2O1 | 73.1 | 2.82
CNC(=O)C1=CC(C)(C)Oc2ccc([N+](=O)[O-])cc21 | 61 | –
C/N=C(/S)C1=CC2(CCCC2)Oc2ccc([N+](=O)[O-])cc21 | – | 0.0209
N#CCC/N=C(\S)C1=CC(CF)(CF)Oc2ccc([N+](=O)[O-])cc21 | 72.5 | 0.141
C/N=C(/S)C1=CC(C)(C)Oc2ccc([N+](=O)[O-])cc21 | 63.5 | –
C/N=C(/S)C1=CC(C)(CF)Oc2ccc([N+](=O)[O-])cc21 (configuration not stated) | 77.1 | 1.62
CC1(C)C=C(/C(S)=N\CCC#N)c2cc([N+](=O)[O-])ccc2O1 | 78.5 | 0.372
CC1(CF)C=C(C(=O)NCCC#N)c2cc([N+](=O)[O-])ccc2O1 (configuration not stated) | 71 | 3.98
N#CCCNC(=O)C1=CC(C(F)(F)F)(C(F)(F)F)Oc2ccc([N+](=O)[O-])cc21 | 64.1 | 0.49
CC1(C(F)(F)F)C=C(/C(S)=N\CCC#N)c2cc([N+](=O)[O-])ccc2O1 (configuration not stated) | 69.7 | 0.363
CNC(=O)C1=CC(C(F)(F)F)(C(F)(F)F)Oc2ccc([N+](=O)[O-])cc21 | 57.9 | 1.48
C/N=C(/S)C1=CC(CF)(CF)Oc2ccc([N+](=O)[O-])cc21 | 74.5 | 0.479
C/N=C(/S)C1=CC2(CCC2)Oc2ccc([N+](=O)[O-])cc21 | – | 0.0251
CC1(CF)C=C(/C(S)=N\CCC#N)c2cc([N+](=O)[O-])ccc2O1 (configuration not stated) | 59.6 | 1.86
N#CCCNC(=O)C1=CC(CF)(CF)Oc2ccc([N+](=O)[O-])cc21 | 72.3 | 2.24
N#CCC/N=C(/S)C1=CC(C(F)(F)F)(C(F)(F)F)Oc2ccc([N+](=O)[O-])cc21 | 74.8 | 0.437
CNC(=O)C1=CC(C)(C(F)(F)F)Oc2ccc([N+](=O)[O-])cc21 (configuration not stated) | 61.7 | 2.69
CNC(=O)C1=CC(C)(CF)Oc2ccc([N+](=O)[O-])cc21 (configuration not stated) | 66 | 8.91
C/N=C(/S)C1=CC(C)(C(F)(F)F)Oc2ccc([N+](=O)[O-])cc21 (configuration not stated) | 62.5 | 0.302
CC1(C(F)(F)F)C=C(C(=O)NCCC#N)c2cc([N+](=O)[O-])ccc2O1 (configuration not stated) | 70.6 | 0.692
C/N=C(/S)C1=CC(C(F)(F)F)(C(F)(F)F)Oc2ccc([N+](=O)[O-])cc21 | 68 | 0.631
CNC(=O)C1=CC(CF)(CF)Oc2ccc([N+](=O)[O-])cc21 | 70.7 | 5.13
CC1(C)Oc2ccc(C#N)cc2[C@@H](N2CCCC2=O)[C@@H]1O [CROMAKALIM] | 74.7 | –
CC(N/C(=N\C#N)Nc1ccncc1)C(C)(C)C (configuration not stated) [PINACIDIL ANHYDROUS] | 91.9 | –
